“Also recorded” adds a separate entry of the source. One block for each molecule: values may come before it.
What was measured:
CHIP [1] = assay: Lipid-binding assay (membrane-immobilized lipids, lipid arrays); design: species or system Human; conditions: lipid strips/PIP strips, 0.5 µg/ml wild-type chaperone-free CHIP, 1 hr at RT, anti-C-CHIP antibody
Method: (§1) Human recombinant full length CHIP and its truncated versions were purified from Escherichia coli BL21 cells using Glutathion Sepharose 4B (GE Healthcare). Sepharose-bound GST-CHIP was subjected to overnight treatment with PreScission protease and the released tag-free protein was collected. Size exclusion chromatography on a HiLoad Superdex 200 column (GE Healthcare) followed to ensure the purity and homogeneity of proteins. All CHIP variants were kept in HSP70 buffer (25 mM HEPES KOH pH 7.5, 150 mM KCl, 5 mM MgCl2, 5% glycerol, 1 mM DTT).
Membrane-immobilized lipids (Membrane lipid strips P-6002 and PIP strips P-6001) were purchased from Echelon Research Laboratories. The strips were incubated with blocking buffer (3% fatty acid free BSA, 0.1% (v/v) Tween-20 in PBS pH 7.5) for 1 hr at RT. 0.5 µg/ml of purified wild-type or mutant CHIP was added in blocking buffer and incubated for 1 hr at RT. Strips were washed and bound proteins were detected using anti-C-CHIP antibody. For competition experiments, ten times molar excess of C-terminal HSP70 was added to CHIP in blocking buffer.

CHIP [2] = assay: Liposome floatation assay; type: binding, Human; conditions: 20% PA, 1 mM liposomes, 0.5 µM CHIP, 30 min at 37°C, pH 7.5
Method: as §1
(§2) Liposomes were prepared by mixing 1,2-dioleoyl-sn-glycero-3-phosphocholine (DOPC) with indicated amount (wt/wt) of either 1,2-dipalmitoyl-sn-glycero-3-phosphate (phosphatidic acid) or (wt/wt) 1,2-dipalmitoyl-sn-glycero-3-phosphoinositol-4-phosphate (PI4P) in a 1.5 ml reaction tube (Eppendorf). […] The liposome suspension was subjected to five freeze-thaw cycles in liquid nitrogen to promote unilamellar vesicle formation, aliquoted in 200 µl and pulse-sonicated for 8 s at 45% output with MS72 sonotrode (Bandelin) to create a population of homogenously sized liposomes as determined using NanoSight (Malvern Instruments). […]
1 mM liposomes and 0.5 µM CHIP were incubated in 150 µl reconstitution buffer for 30 min at 37°C. […] Resulting fractions were analyzed by SDS-PAGE and western blotting after loading dilution-corrected amount of respective fractions.

CHIP [3] = assay: Liposome pelleting assay, effect of lipids and HSP70-C on CHIP association; type: binding, Human; conditions: 2 mM liposomes, 2 µM CHIP, 30 min at 37°C, N = 3
Method: as §1
Human C-terminal HSP70 6xHis-tagged N-terminally was purified from Escherichia coli BL21 cells using 1 ml HisTrap column (GE Healthcare). Bound protein was eluted by applying an imidazole gradient. Fractions containing the protein were subjected to size exclusion chromatography using HiLoad Superdex 200 in HSP70 buffer. His-NQO1, His-UbcH5a, His-Uev1a and His-Ubc13 were purified similarly except that PBS/1 mM DTT was used during size exclusion chromatography. Purity of recombinant protein was evaluated by SDS-PAGE and Coomassie BB G-250 (CBB) staining. Concentration of proteins was determined measuring absorbance at 280 nm and using ProtParam (ExPASy) to calculate respective extinction coefficients. Proteins were aliquoted, snap-frozen and stored at −80°C.
Liposomes were prepared by mixing 1,2-dioleoyl-sn-glycero-3-phosphocholine (DOPC) with indicated amount (wt/wt) of either 1,2-dipalmitoyl-sn-glycero-3-phosphate (phosphatidic acid) or (wt/wt) 1,2-dipalmitoyl-sn-glycero-3-phosphoinositol-4-phosphate (PI4P) in a 1.5 ml reaction tube (Eppendorf). Lipid mixtures were dried under a nitrogen stream and kept for 1 hr under vacuum. Liposomes were rehydrated in 1 ml filtered reconstitution buffer (25 mM HEPES KOH pH 7.5, 50 mM NaCl) to a concentration of 10 mM lipids. Liposomes were reconstituted by shaking at 2000 rpm for 1 hr at 50°C, followed by sonication for 1 hr at 50°C in a water bath. The liposome suspension was subjected to five freeze-thaw cycles in liquid nitrogen to promote unilamellar vesicle formation, aliquoted in 200 µl and pulse-sonicated for 8 s at 45% output with MS72 sonotrode (Bandelin) to create a population of homogenously sized liposomes as determined using NanoSight (Malvern Instruments). Sonicated liposomes were pooled, aliquoted again, snap-frozen and stored at −80°C.
2 mM liposomes were mixed with 2 µM recombinant protein in 50 µl reconstitution buffer. The suspension was incubated shaking at 450 rpm for 30 min at 37°C. Liposomes with bound protein were sedimented by ultracentrifugation at 100,000 g for 30 min at 25°C. Liposome pellet was washed with 50 µl of reconstitution buffer and sedimented again at 100,000 g for 30 min at 25°C. The pellet was resuspended in 10 µl reconstitution buffer, resolved by SDS-PAGE and analyzed by CBB staining. Images were acquired with ChemiDoc MP imaging system and quantified using Image Lab 5.0 software (both from Bio-Rad Laboratories). For competition assays, indicated amounts of C-terminal HSP70 were preincubated with 2 µM CHIP for 20 min at 37°C prior to co-sedimentation.

recombinant CHIP = assay: Chemical crosslinking of recombinant CHIP in vitro; type: biochemical, Human; conditions: sodium deoxycholate, Coomassie Blue-stained reducing SDS-PAGE
Method: as §1
5 µM of recombinant CHIP were crosslinked with 0.025% glutaraldehyde for 10 min at 30°C unless indicated otherwise. Crosslinking reaction was quenched with 100 mM Tris HCl pH 7.5 for 10–15 min at RT. Where indicated, HSP70 peptide at 800 μM was pre-incubated at 30°C for 20 min before adding glutaraldehyde. Crosslinking on 20% PA-containing liposomes was performed after centrifugation on the resuspended pellet. For CHIP monomerization, fresh 10% sodium deoxycholate stock solution was used. Crosslinks were analyzed with SDS-PAGE and CBB staining.

CHIP [4] = conditions: steroid detergent deoxycholate, monomerization; ref Nikolay et al., 2004; cited from earlier work
From the text: Since lipid binding can influence the activity of enzymes ([Fang et al., 2001]; [Leonard and Hurley, 2011]), we sought to assess the ubiquitylation function of CHIP upon interaction with membranes. […] First, CHIP remained dimeric and was still capable of oligomerization (Figure 4a).

[5] = Liposome pelleting assay, binding of CHIP and truncated variants to liposomes; conditions: 20% PA- or 5% PI4P-containing DOPC liposomes, 2 mM liposomes, 2 µM CHIP, 37°C; up to
From the text: (§3) For mammalian expression of EGFP, the expression vector pEGFP-N1 from Clontech (Mountain View, CA) was used. N-terminal EGFP-CHIP fusion protein was constructed by cloning human CHIP coding sequence in pEGFP-C2 vector (Clontech) using HindIII and BamHI restriction sites. A fusion between the N-terminalβ−1,4-galactosyltransferase1 and EGFP was used as a marker of the Golgi apparatus, farnesylated EGFP as a marker of plasma membrane (both constructs from Clontech). Untagged and 3xFLAG-tagged human CHIP for mammalian expression were constructed in pCMV-10 vector (Sigma-Aldrich). HSP70 was amplified from human cDNA and cloned into pcDNA3. 1 expression vector without a tag. HSP70 lacking the last amino acid (HSP70ΔD) was prepared by site-directed mutagenesis. Vectors of full-length CHIP, UbcH5a and mutant NQO1 for bacterial expression were prepared as described ([Martínez-Limón et al., 2016]). The TPR domain bacterial expression vector (TPR) was created by exchanging glutamate152 codon to a stop codon in the full-length CHIP vector. CHIP without TPR domain (ΔTPR) was cloned by deleting the sequence between serine25 and argininge130 by means of PCR. […]
as §2
2 mM liposomes were mixed with 2 µM recombinant protein in 50 µl reconstitution buffer. […] The pellet was resuspended in 10 µl reconstitution buffer, resolved by SDS-PAGE and analyzed by CBB staining. Images were acquired with ChemiDoc MP imaging system and quantified using Image Lab 5.0 software (both from Bio-Rad Laboratories). […]

[6] = system: NQO1 P187S mutant; ubiquitin; CHIP; assay: In vitro ubiquitylation on liposomes; type: biochemical; conditions: 37°C 1 hr
Method: In vitro ubiquitylation was performed in 50 mM Tris HCl pH 7.5, 50 mM NaCl, 10 mM MgCl2, 2 mM DTT and 2 mM ATP. Reactions contained 100 nM UBE1 (Boston Biochem, Cambridge, MA), 2 µM either UbcH5a or Uev1A/Ubc13, 5 µM CHIP and […] ubiquitin from bovine erythrocytes (Sigma-Aldrich). 2.5 µM NQO1 P187S mutant was added as substrate where indicated. Reactions proceeded at 37°C for 1 hr and then were stopped by adding reducing SDS sample buffer and boiling samples at 95°C for 5 min. Protein modification was analyzed by SDS-PAGE and immunoblotting using antibodies against NQO1, CHIP and ubiquitin. Where indicated, CHIP pelleted with 20% PA-containing liposomes was used instead of soluble protein.

trypsin = assay: Protease sensitivity assay (trypsin); type: physicochemical; conditions: 0.5 ng/µl trypsin, 37°C, 20% PA-containing liposomes; no significant difference; N = 3
Method: CHIP pelleted with 20% PA-containing liposomes was subjected to 0.5 ng/µl trypsin treatment at 37°C. Hydrolysis was stopped by adding hot reducing SDS sample buffer and boiling for 5 min. Samples were analyzed by SDS-PAGE and CBB staining. For controls without liposomes, protein was used at concentration assuming 30% binding to liposomes. Images were acquired with ChemiDoc MP imaging system and quantified using Image Lab 5.0 software (both from Bio-Rad Laboratories).

[7] = Lipid-binding assay, binding of CHIP variants to phospholipids; conditions: 0.5 µg/ml protein, 1 hr at RT
From the text: as §3
Membrane-immobilized lipids (Membrane lipid strips P-6002 and PIP strips P-6001) were purchased from Echelon Research Laboratories. […] Strips were washed and bound proteins were detected using anti-C-CHIP antibody. […]

Molecule: CCCCCCCCCCCCCCCC(=O)OC[C@H](COP(=O)(O)O)OC(=O)CCCCCCCCCCCCCCC [PA, 1,2-dipalmitoyl-sn-glycero-3-phosphate]
CHIP binding to phospholipid on lipid array (CHIP [1]): CHIP specificity mainly to phosphatidic acid (PA)
CHIP cofloatation with DOPC liposomes (CHIP [2]): strongly enhanced
CHIP association with DOPC-liposomes (pelleting), 5% PA (CHIP [3]; 5% PA, no significant difference): insufficient to strengthen binding of CHIP onto liposomes; also recorded: insufficient to enhance binding of CHIP to DOPC-liposomes
CHIP association with DOPC-liposomes (pelleting), PA (CHIP [3]; PA-containing liposomes (Figure 2b)): pelleting was increased in the presence of PA; also recorded: strongly

Molecule: C[C@H](CCC(=O)O)[C@H]1CC[C@H]2[C@@H]3CC[C@@H]4C[C@H](O)CC[C@]4(C)[C@H]3C[C@H](O)[C@]12C [deoxycholate, sodium deoxycholate]
monomerization of CHIP (recombinant CHIP): monomerizes CHIP in vitro
ubiquitin ligase activity of CHIP (CHIP [4]): reversibly inactivate its ubiquitin ligase activity

CHIP associated with liposomes, % of input [5]: 50–60%
Molecule: CHIP: human recombinant full length CHIP, ubiquitin ligase
ubiquitylation of NQO1 and K63 chain formation while attached to liposomes ([6]; 5 µM CHIP or CHIP pelleted with 20% PA-containing liposomes, UbcH5a or Ubc13/Uev1a): remains capable to ubiquitylate the substrate protein NQO1 and form unattached K63-conjugated chains
K63-based ubiquitin polymerization on liposomes versus soluble ([6]; Ubc13/Uev1a, 20% PA-containing liposomes): slightly weaker on liposomes
auto-ubiquitylation on liposomes versus soluble ([6]; UbcH5a, 20% PA-containing liposomes): somewhat stronger on liposomes
sensitivity to proteolysis on liposomes versus in solution (trypsin): does not change its sensitivity to proteolysis

B1: m2Δ: CHIP with KRKK to AAAA (221–224 aa) (protein, UniProt Q9UNE7 1-303, looked up, variant K221A R222A K223A K224A)
E3 ubiquitin-protein ligase …: MKGKEEKEGGARLGAGGGSPEKSPSAQELKEQGNRLFVGRKYPEAAACYGRAITRNPLVAVYYTNRALCYLKMQQHEQALADCRRALELDGQSVKAHFFLGQCQLEMESYDEAIANLQRAYSLAKEQRLNFGDDIPSALRIAKKKRWNSIEERRIHQESELHSYLSRLIAAERERELEECQRNHEGDEDDSHVRAQQACIEAKHDKYMADMDELFSQVDEAAAARDIPDYLCGKISFELMREPCITPSGITYDRKDIEEHLQRVGHFDPVTRSPLTQEQLIPNLAMKEVIDAFISENGWVEDY
phospholipid binding of CHIP variant versus wild-type [7]: affects CHIP interaction with phospholipids in vitro

Reference: article PMC5665643, “CHIP as a membrane-shuttling proteostasis sensor” (eLife, 2017)
